# Experimental data published in patent US20230001010A1, “COMPOSITIONS AND METHODS FOR TREATING AUTOIMMUNE DISORDERS” (The Regents of the University of Michigan, priority 2019, published 2023).
# How the values were obtained:
# [1] = Antigen / drug loading efficiency in HDL nanodiscs (HPLC/MS); type: physicochemical; conditions: for loading efficiency in HDL: antigen / antigen-lipid conjugate loaded into HDL nanodiscs, HPLC/MS; for drug encapsulate efficiencies: drug in HDL nanodiscs, HPLC-MS
# Description: (§1) HDL nanodisc was prepared as previously described. Briefly, DMPC was dissolved in chloroform, which was evaporated with nitrogen flow and under vacuum for at least 1 h. The resulting lipid film was hydrated in 10 mM sodium phosphate buffer and sonicated in a bath sonicator for 10 min. ApoA1 mimetic peptide 22A dissolved in endotoxin free water was added to the above mixture (22A:DMPC=1:2 weight ratio) to obtain nanodiscs. To load MOG antigen peptide in nanodiscs, each antigen peptide was reacted with 4-(4-maleimidophenyl)-butyric DOPE for 3 h in dimethylformamide (DMF), which was removed by freeze-drying after dilution 10× with endotoxin-free water. The lipid-peptide conjugates were dissolved in DMSO and added to pre-formed sHDL and incubated for 30 min at room temperature. Unreacted MOG peptides were removed by using Zeba Spin Desalting columns (Pierce) following the manufacturer's instructions. The conjugation efficiency of MOG peptide was determined by LC-MS and gel permeation chromatography (GPC). EAE was induced in female C57BL/6 mice by inoculation with 100 μg of MOG in complete Freund's adjuvant on day 0 following the administration of pertussis toxin. Mice were then injected subcutaneously at tail base for therapeutic study with sHDL-MOG, MOG or PBS on indicated days. Mice were weighed and scored daily based on the following guideline: 0, no sign of disease; 1, loss of tone in the tail; 2, hind limb paresis; 3, hind limb paralysis; 4, tetraplegia; and 5, moribund.
# To produce HDL nanodiscs carrying immunomodulatory drugs, 22A, and DMPC were dissolved in acetic acid and freeze-dried overnight as shown above. Drugs (FTY720, ITE, TSA, or SAHA) were dissolved in chloroform and added to lyophilized powder, followed by drying overnight in vacuum oven. Dried samples were rehydrated by 10 mM phosphate buffer. After three heat-cooling cycles, HDL-loaded with drugs were performed. The concentration of each drug was measured by HPLC-MS as shown for FTY720, ITE, TSA, or SAHA (FIGS. 14-17, respectively). Free drugs were used to generate standard curves. […] Samples were also analyzed by dynamic light scattering (DLS) for the particle sizes. […] We also analyzed HDL-FTY720 samples using gel permeation chromatography (GPC) (FIG. 19).
# We synthesized HDL nanodiscs loaded with other CD4+ T cell epitopes for validation of our approach. We have synthesized phospholipids conjugated to either Ea chain 52-68 peptide (EA, ASFEAQGALANIAVDKA (SEQ ID NO: 831)), ovalbumin-II 323-339 peptide (OVA-II, ISQAVHAAHAEINEAGR (SEQ ID NO: 832)), and type-II collagen 250-270 peptide (CIA, […] (SEQ ID NO: 833)), each modified with CSS-peptide at N-terminus. Antigen-lipid conjugates were loaded into HDL nanodiscs as described above and analyzed by HPLC/MS and DLS. EA, OVA-II, and CIA peptides were conjugated to MPB-phospholipids with ˜95% conjugation efficiency (FIGS. 22-25). Antigen-lipid conjugates were efficiently loaded into HDL nanodiscs with ˜90%, ˜84%, and ˜78% loading efficiency for EA, OVA-II, and CIA peptides, respectively (FIGS. 22-25).
# [2] = system: experimental autoimmune encephalomyelitis (EAE); experiment: Experimental autoimmune encephalomyelitis (EAE) mouse model, pathological score; type: in vivo, C57BL/6 mice; conditions: for time until mice were moribund: treated on days 2, 9 and 16; for average pathological score: treated s.c. on days 2, 9 and 16
# Description: as §1
# EAE-induced mice were administered s.c. with PBS or HDL-MOG on days 15, 22, and 29, and a subset of animals also received i.p. administration of […] to deplete Tregs at the specified time points (FIG. 13).
# We examined the therapeutic potential of HDL-FTY720 in the EAE model. EAE was initiated as described above. Briefly, EAE was induced in mice as indicated above. Mice received i.p. administration of PBS or HDL-FTY720 (1 mg/kg) on days 14, 21, and 28. Mice were scored daily and assigned EAE scores as indicated above.
# [3] = system: CD4+ T cells from splenocytes; experiment: Intracellular cytokine staining of CD4+ T cells from splenocytes; type: in vivo, C57BL/6 mice; conditions: spleen; day 40
# Description: (§2) Briefly, female C57BL/6 mice were injected subcutaneously with an emulsion of MOG35-55 ([…], SEQ ID NO: 830) in complete Freund's adjuvant (CFA) and intraperitoneal (i.p.) injection of pertussis toxin (120 ng/dose on days 0 and 2). EAE-induced mice were treated with PBS, free MOG, HDL-MOG, or HDL-M30 (irrelevant CD4+ T cell epitope from B16F10 tumor cells) and CNS tissues were harvested on day 40 (FIG. 10A). CNS tissues were harvested from mice after intracardiac perfusion with PBS. Spinal cord was harvested, homogenized in 10 ml of PBS containing 1% BSA, and pelleted at 800×g for 5 min. Cell pellets were resuspended in 3 ml of collagenase A (1 mg/ml) and DNase I (1 mg/ml) in HBSS and incubated in a 37° C. water bath for 30 min. Samples were pelleted at 800×g, resuspended in 27% Percoll, and centrifuged for 10 min at 800×g. The myelin/debris layer and Percoll were removed, and the cell pellet was stained and analyzed by flow cytometric analysis. Splenic immune cells were isolated by homogenization through a 70 µm strainer (BD Falcon). RBCs were lysed using ACK lysis buffer. Cells were washed with 25 ml of PBS, centrifuged at 800×g, resuspended in FACS buffer, and stained with antibodies. For the cellular surface staining, cells were resuspended in PBS with a fixable viability dye (BV510) for 10 min. Then, cells were washed two times with FACs buffer and resuspended in Fc Block (anti-CD16/32; 100 ng/ml). For ex vivo re-stimulation, cells were incubated for 96 hr with MOG35-55 before brefeldin A (BFA) (5 μg/ml) was added for 4 h. For intracellular staining, cells were stained for surface markers, fixed/permeabilized, and stained with antibody for 30 min on the ice. After 2× washing, cells were resuspended in FACS buffer and analyzed by flow cytometric analysis. Data were collected with a Cytek Aurora flow cytometer using FCS express software (V7).
# (§3) On day 40, CNS tissues were isolated and pulsed ex vivo with MOG35-55 peptide, followed by measurement of IL-17, IFN-gamma, and GM-CSF by ELISA (FIG. 10B). […]
# Tregs in the CNS = experiment: Frequency of Tregs in CNS of EAE mice (flow cytometry); type: in vivo; conditions: EAE-induced mice; day 40
# Description: Cells from CNS were stained by anti-CD25, anti-CD4, and MOG-tetramer, followed by fixation/permeabilization and intracellular staining with anti-Foxp3. Stained cells were then analyzed by flow cytometry. […] On the other hand, mice treated with free MOG peptide or HDL-M30 had basal level of Tregs as in PBS-treated EAE mice (FIGS. 12A-12B).
# [4] = system: CD4+ T cells from CNS cells; experiment: Intracellular cytokine staining of CD4+ T cells from CNS; type: in vivo, C57BL/6 mice; conditions: day 40
# Description: as §2, §3
# CNS tissues of EAE mice = experiment: Cytokine release from CNS cells of treated EAE mice after ex vivo MOG35-55 re-stimulation (ELISA); type: in vivo, C57BL/6 mice; conditions: day 40, pulsed ex vivo with MOG35-55
# Description: FIG. 6A is a schematic diagram depicting the treatment regimen. FIG. 6B are graphs showing the amount of GM-CSF, IFN-gamma, and IL-17 released after ex vivo treatment of CNS tissues with MOG35-55 peptide.
# as §2, with “(V7). […]” for “(V7).”
# [5] = Lymph node draining / biodistribution of TMR-labelled antigen after s.c. administration; type: in vivo, C57BL/6 mice; conditions: naive mice, after one day
# Description: Tetramethylrhodamine (TMR, excitation/emission ˜540/560 nm) modified MOG peptide (CSSGWYRSPFSRVVHL-TMR, MOG-TMR SEQ ID NO: 829) was prepared by reacting TMR-NHS and MOG peptide according to the manufacturer's instruction. MOG-TMR was purified using HPLC and reacted with DOPE-MAL in DMF to produce DOPE-Mal-MOG-TMR (MOG-TMR). Next, the DMF solution was diluted with water, freeze-dried, dissolved in DMSO, and added to previously made HDL to produce HDL-MOG-TMR. Conjugation of MOG-TMR to DOPE-MAL and incorporation of MOG-TMR in HDL were measured by HPLC/MS, as indicated above. For the lymph node draining studies, naive female C57BL/6 mice or EAE-induced mice were administered s.c. at tail base with HDL-MOG-TMR or free MOG-TMR containing antigen peptide (100 μg per mouse) in 100 μl volume. After 24, 96, and 196 hr, animals were euthanized, organs were harvested, and TMR signal was measured with an IVIS optical imaging system (Caliper Life Sciences). Inguinal lymph nodes and spinal cord were cut into small pieces and passed through a 70-μm cell strainer, washed two times, and stained with the indicated antibodies, followed by flow cytometry analysis.
# [6] = system: bone marrow-derived dendritic cells (BMDCs); experiment: Cellular uptake by BMDCs (confocal microscopy); type: cell-based, C57BL/6 mice; conditions: FITC-labelled antigen
# Description: To obtain bone marrow-derived dendritic cells (BMDCs), bone marrow was flushed from femurs and tibia bone of 5 to 6 weeks old C57BL/6 mice. Bone marrow cells were plated at 1×10^6 cells per dish in RPMI 1640 supplemented with 10% FBS, 55 μM β-mercaptoethanol, 5 ng/ml of GM-CSF, and 100 U/ml penicillin (BMDC media). On day three and five, one half of the culture media was replaced with fresh media. After 8 days, BMDCs were harvested and plated at 1×10^6 cells per well in 12-well plates.
# (§4) Internalization of fluorescent HDL-MOG by BMDCs or microglia were visualized using confocal microscopy. BMDCs or microglia were seeded at 1×10^6 cells on 35 mm Petri dishes (MatTek) and incubated with the mixture of free CSS-MOG-K(FITC), or sHDL-CSS-MOG-K(FITC). Cells were then washed three times with PBS, fixed with 4% paraformaldehyde, washed, and permeabilized with 0.1% Triton-X solution. Actin filaments were stained with AlexaFluor 647-Phalloidin, MHC-II was stained with MHC-II-Texas red, and the nuclei were stained with DAPI. The samples were imaged using a 63× oil-immersion lens on a Nikon A-I spectral confocal microscope.
# microglia = experiment: Cellular uptake by microglia (confocal microscopy); type: cell-based, C57BL6/J mice; conditions: FITC-labelled antigen
# Description: Mixed glial cell cultures were harvested from the cerebral cortex of newborn (P0-2) C57BL6/J mice as described previously. Cortices and brain stem were separated, and the blood vessels and meninges were carefully isolated. Then, the tissues were digested by enzymatic dissociation (0.05% trypsin-EDTA and […] DNase I), washed two times with 1% BSA in PBS. Cells were resuspended in DMEM (10% FBS, 1% penicillin/streptomycin, 0.5 mM 2-mercaptoethanol). Mixed glial cells were cultured in poly-D-lysine-coated flasks and grown at 37° C. and 5% CO2. After 10 days, microglia cells were isolated from the underlying astrocytic layer by shaking of the flask. The cell culture contained more than 95% microglial (CD11 b+, CD45+) cells as analyzed by flow cytometry.
# as §4
# [7] = harsh EAE induced with MOG1-125
compound,measurement,setting,value
"ASFEAQGALANIAVDKA [Ea chain 52-68 peptide, modified with CSS-peptide at N-terminus]",loading efficiency in HDL,[1],~90%
MEVGWYRSPFSRVVHLYRNGK [free MOG peptide],time until mice were moribund,[2]; [7],≤ 20 days
same,average pathological score,[2]; [7],5
same,time until mice were moribund,[2]; mild EAE induced with MOG35-55,≤ 20 days
same,average pathological score,[2]; mild EAE induced with MOG35-55,5
same,loading efficiency in HDL,[1],~90%
same,frequency of CD4+ T cells producing GM-CSF,[3],high frequencies
same,frequency of CD4+ T cells producing IFN-gamma,[3],high frequencies
same,frequency of CD4+ T cells producing IL-17,[3],high frequencies
same,frequency of CD25+Foxp3+ Tregs in the CNS,Tregs in the CNS,basal level
same,frequency of CD4+ T cells producing GM-CSF,[4],high frequencies
same,frequency of CD4+ T cells producing IFN-gamma,[4],high frequencies
same,frequency of CD4+ T cells producing IL-17,[4],high frequencies
same,level of GM-CSF in CNS,CNS tissues of EAE mice,high levels
same,level of IFN-gamma in CNS,CNS tissues of EAE mice,high levels
same,level of IL-17 in CNS,CNS tissues of EAE mice,high levels
"ISQAVHAAHAEINEAGR [OVA-II, ovalbumin-II 323-339 peptide, modified with CSS-peptide at N-terminus]",loading efficiency in HDL,[1],~84%
"CC(/C=C/C(=O)NO)=C\[C@@H](C)C(=O)c1ccc(N(C)C)cc1 [TSA, Trichostatin A]",drug encapsulate efficiencies,[1],~80%
"O=C(CCCCCCC(=O)Nc1ccccc1)NO [SAHA, Suberoylanilide hydroxamic acid]",drug encapsulate efficiencies,[1],~100%
"CCCCCCCCc1ccc(CCC(N)(CO)CO)cc1 [FTY720, Fingolimod]",EAE score,[2]; FTY720 0.3 mg/Kg oral daily for 30 days starting day 30,3
same,EAE score,[2]; FTY720 1 mg/Kg oral daily for 30 days starting day 30,1
same,day by which mice had to be euthanized after treatment stopped,[2]; FTY720 oral daily for 30 days starting day 15,≤ 55 days
same,day by which mice had to be euthanized after treatment stopped,[2]; FTY720 oral daily for 30 days starting day 30,≤ 90 days
same,EAE score,"[2]; treatment started day 15: HDL-MOG s.c. days 15, 22, 29, followed 85 days, FTY720 oral daily for 30 days",above 2
CSSGWYRSPFSRVVHL-TMR [MOG-TMR],TMR signal in inguinal dLNs,[5],minimal TMR signal
CSS-MOG-K(FITC) [MOG-FITC],internalization by BMDCs,[6],minimal signal
same,internalization by microglia,microglia,minimal signal
"COC(=O)c1csc(C(=O)c2c[nH]c3ccccc23)n1 [ITE, 2-(1′H-indole-3′-carbonyl)-thiazole-4-carboxylic acid methyl ester]",drug encapsulate efficiencies,[1],~95%
"GPKGQTGKPGIAGFKGEQGPK [CIA, type-II collagen 250-270 peptide, modified with CSS-peptide at N-terminus]",loading efficiency in HDL,[1],~78%
